Measured values reported in patent US11833144B2, “Treating autoimmune disease” (Mayo Foundation for Medical Education and Research, priority 2020, dated 2023).

Key:
Format in all cases: cell-based, mouse
murine B cells = experiment: Murine B cell proliferation (CellTrace Violet, cell number) and class switch to IgG1 in vitro
Procedure: Mouse B cells were isolated from pooled single cell suspensions of spleen and peripheral lymph nodes using CD19 Microbeads (Miltenyi) or Mouse B cell Isolation Kit (Stemcell Technologies). B cells were stimulated with LPS (10 μg/mL; Sigma-Aldrich) and recombinant IL-4 cytokine (10 ng/mL; Tonbo Bioscience) with or without SCD inhibitor SSI-4, and proliferation was measured by dilution of CellTrace Violet proliferation dye (Thermo Fisher Scientific). B cells were also stimulated with anti-IgM (10 μg/mL; Jackson ImmunoResearch), anti-CD40 (10 μg/mL; BioXcell) and IL-4 (10 ng/mL; Tonbo Bioscience), or TLR ligand CpG (2.5 μM; IDT), recombinant IL-4 and IL-5 (10 ng/mL; Tonbo Bioscience) cytokines. To test the function of monounsaturated and saturated fatty acids, B cells were activated in presence of exogenous fatty acid-BSA conjugate. Palmitoleic acid (NU-CHEK PREP, INC), palmitic acid (NU-CHEK PREP, INC), stearic acid (NU-CHEK PREP, INC) were conjugated with fatty acid free BSA (Sigma-Aldrich) as described elsewhere (Wang et al., Immunity 35:871-882 (2011)). Human B cells were activated with CpG OND2006 (2.5 μM; IDT), recombinant human cytokine IL-10 ([…]; Peprotech), IL-15 (10 ng/mL; Peprotech), IL-4 (10 ng/mL; Biolegend), IL-2 (10 unit/mL) and anti-human CD40 (1 μg/mL; BioXcell). Human B cell proliferation was measured by ^3[H]-thymidine incorporation (1 μCi/mL) (American Radiolabeled Chemicals). For analysis of surface markers, cells were stained in PBS containing 1% (w/v) bovine serum albumin on ice for 30 minutes, with anti-IgG1 (RMG1-1, Biolegend), anti-CD19 (ID3, Biolegend) anti-B220 (RA3-6B2, Biolegend), anti-CD4 (GK1.5, Biolegend), anti-CD8 (53-6.7, Biolegend), anti-CD25 (PC16, Biolegend), anti-GL7 (GL-7, Biolegend), anti-CD95 (Jo2, BD Biosciences), anti-CD138 (281-2, Biolegend), anti-IgD (11-26c.2a, Biolegend), anti-PD-1 (J43, ThermoFisher), anti-IgM (II/41, ThermoFisher). Antigen specific GC response was detected with tetramer NP-phycoerythrin conjugated with PE (Biosearch Technologies). CXCR5 was stained with biotinylated anti-CXCR5 (2G8) followed by staining with streptavidin-conjugated PE (both from BD Biosciences). Cell viability was assessed using the Fixable Dye Ghost 510 (Tonbo Bioscience) or Annexin V cell apoptosis kit with 7-AAD (ThermoFisher) following the manufacturer's protocol. Phosflow staining for phospho-S6 (S235/236) was performed using Phosflow Fix/Perm kit (BD Biosciences). Mitochondrial potential was measured by staining with 20 nM TMRM (ThermoFisher) following manufacturer's instructions. Flow cytometry was performed on the LSR II, LSR Fortessa (BD Biosciences) or Attune NxT (ThermoFisher) cytometers, and analysis was performed using FlowJo software (Tree Star).

Chop, Atf4, Sqstm1 = experiment: RT-PCR of ER stress-related genes in activated B cells
Procedure: For mRNA analysis, total mRNA was isolated from mouse and human B cells by RNeasy Micro kit (Qiagen), reverse transcribed from mRNA to cDNA for subsequent real-time PCR analysis. Scd1, Scd2, Fasn, Acaca, Chop, Atf4, Sqstm1 in mouse B cells and Scd, Fasn, Acaca expression in human B cells were measured by real-time PCR with a Bio-Rad Realtime PCR system. β-actin expression was used as control.

activated murine B cells [1] = experiment: Seahorse OCR / ECAR in activated murine B cells
Procedure: The bioenergetic activities of the OCR and ECAR were measured using a Seahorse XFe96 Extracellular Flux Analyzed following established protocols (Agilent). Briefly, B cells were seeded at 200,000 cells/well on Cell-Tak (Corning) coated XFe96 plate with fresh XF media (Seahorse XF RPMI medium containing 10 mM glucose, 2 mM L-glutamine, and 1 mM sodium pyruvate, PH 7.4; all reagents from Agilent). OCR was measured in the presence of Oligomycin (1.5 μM; Sigma-Aldrich), FCCP (1.5 μM; Sigma-Aldrich), and Rotenone (1 μM; Sigma-Aldrich)/Antimycin A (1 μM; Sigma-Aldrich) in Mito Stress assay. For ECAR measurement, B cells were seeded in XFe96 plate with fresh Seahorse XF RPMI medium with 2 mM L-glutamine (PH 7.4), and treated with glucose (10 mM; Agilent), Oligomycin (1.5 and 2-DG (50 mM; Sigma-Aldrich) orderly in Glycolysis Stress assay.

activated murine B cells [2] = experiment: TMRM staining of mitochondrial membrane potential in activated murine B cells; settings: 72 hours; for mitochondrial membrane potential (TMRM): substance alone
Procedure: For analysis of surface markers, cells were stained in PBS containing 1% (w/v) bovine serum albumin on ice for 30 minutes, with anti-IgG1 (RMG1-1, Biolegend), anti-CD19 (ID3, Biolegend) anti-B220 (RA3-6B2, Biolegend), anti-CD4 (GK1.5, Biolegend), anti-CD8 (53-6.7, Biolegend), anti-CD25 (PC16, Biolegend), anti-GL7 (GL-7, Biolegend), anti-CD95 (Jo2, BD Biosciences), anti-CD138 (281-2, Biolegend), anti-IgD (11-26c.2a, Biolegend), anti-PD-1 (J43, ThermoFisher), anti-IgM (II/41, ThermoFisher). Antigen specific GC response was detected with tetramer NP-phycoerythrin conjugated with PE (Biosearch Technologies). CXCR5 was stained with biotinylated anti-CXCR5 (2G8) followed by staining with streptavidin-conjugated PE (both from BD Biosciences). Cell viability was assessed using the Fixable Dye Ghost 510 (Tonbo Bioscience) or Annexin V cell apoptosis kit with 7-AAD (ThermoFisher) following the manufacturer's protocol. Phosflow staining for phospho-S6 (S235/236) was performed using Phosflow Fix/Perm kit (BD Biosciences). Mitochondrial potential was measured by staining with 20 nM TMRM (ThermoFisher) following manufacturer's instructions. Flow cytometry was performed on the LSR II, LSR Fortessa (BD Biosciences) or Attune NxT (ThermoFisher) cytometers, and analysis was performed using FlowJo software (Tree Star).

[3] = LPS/IL-4 activated, fatty acid-BSA conjugate, no inhibitor

SMILES: CCCCCCCC/C=C\CCCCCCCC(=O)O [OA, oleic acid]
- rescue of proliferation defects caused by SCD inhibition (murine B cells; 100 nM SSI-4 plus exogenous 100 μM OA, 3 days, LPS/IL-4/IL-5, anti-IgM/anti-CD40/IL-4 or CpG/IL-4/IL-5): able to rescue the proliferation defects
- rescue of proliferation and IgG1 class switch in SCD1/2 deficient B cells (murine B cells; B cells from Scd1 and Scd2 deficient mice, LPS/IL-4): fully restored
- rescue of proliferation and IgG1 class switch upon SSI-4 treatment (murine B cells; LPS/IL-4, SSI-4 with exogenous fatty acid): fully restore both parameters
- B cell proliferation, exogenous fatty acid alone (murine B cells; [3]): further enhanced
- IgG1 class switch, exogenous fatty acid alone (murine B cells; [3]): further enhanced
- ER stress-related gene upregulation with exogenous OA (Chop, Atf4, Sqstm1; SSI-4 plus OA): reduced these genes upregulation
- OA mediated increase of basal respiration with titrated doses (activated murine B cells [1]; exogenous OA 1, 10, 20 and 50): dose dependent
- glycolytic capacity of activated murine B cells (activated murine B cells [1]; exogenous fatty acid, 48 h, Glycolysis Stress test): increased the glycolytic capacity
- B cell respiration (OCR) (activated murine B cells [1]; exogenous fatty acid, 48 h, CpG/IL-4/IL-5 (PO: CpG and anti-IgM/anti-CD40) stimulation): enhanced B cell respiration
- mitochondrial membrane potential (TMRM) under SCD inhibition with exogenous OA (activated murine B cells [2]; SSI-4 plus OA): corrected
- mitochondrial membrane potential (TMRM) (activated murine B cells [2]): able to increase mitochondrial membrane potential

SMILES: CNC(=O)c1ccnc(NC(=O)N2CCC(Oc3ccccc3Cl)CC2)c1 [SSI-4, 2-{[4-(2-Chlorophenoxy)piperidine-1-carbonyl]amino}-N-methylpyridine-4-carboxamide]
- IgG1 class switch (murine B cells; LPS/IL-4, SCD inhibitor SSI-4 alone): strongly suppressed
- proliferation of mouse B cells (CTV dilution) (murine B cells; LPS/IL-4 activated, SCD inhibitor alone): capable of inhibiting B cell proliferation
- ER stress-related genes Chop, Atf4, Sqstm1 (Chop, Atf4, Sqstm1; SSI-4 treatment): increased
- B cell glycolysis (ECAR) under SCD inhibition (activated murine B cells [1]; SSI-4, 48 hours): strongly suppressed
- B cell respiration (OCR) under SCD inhibition (activated murine B cells [1]; SSI-4, 48 hours): strongly suppressed
- mitochondrial membrane potential (TMRM) (activated murine B cells [2]): reduced mitochondrial membrane potential
